Data reported in patent publication US8816085B2 (Takeda GmbH, priority 2009, dated 2014).

Target: T1, PDE5A1 (human PDE5 from platelets) (Homo sapiens, UniProt O76074)
T1 construct: from tissue; host or cells: platelets from fresh blood of human donors (10,000 g supernatant of sonified platelets)
Assay: Inhibition of type 5 phosphodiesterase (PDE5) activity, modified SPA test
Type: biochemical
Settings: PDE5-containing human platelet lysate, 0.5 μM cGMP, value classes, read-out: PDE5A1 inhibitory values [measured as −logIC50 (mol/l)] (converted)
Experimental: Method for Measuring Inhibition of the Type 5 Phosphodiesterase (PDE5) Activity:
As a source for human PDE5, platelets are used. For that purpose, 150 ml fresh blood from human donors anticoagulated with citrate [final concentration 0.3% (w/v)] is centrifuged at 200 g for 10 min to obtain the so-called platelet-rich-plasma (PRP) as a supernatant. 1/10 volume of ACD solution (85 mM Na3-citrate, 111 mM D-glucose, 71 mM citric acid, pH 4.4) is added to 9/10 volume of PRP. After centrifugation (1,400 g, 10 min) the cell pellet is resuspended in 3 ml homogenization buffer (NaCl 140 mM, KCl 3.8 mM, EGTA (ethylene glycol tetraacetic acid) 1 mM, MgCl2 1 mM, Tris-HCl 20 mM, beta-mercaptoethanol 1 mM, pH 8.2) plus protease-inhibitor mix giving rise to the final concentrations of 0.5 mM Pefablock (Roche), 10 μM Leupeptin, 5 μM Trypsininhibitor, 2 mM Benzamidin and 10 μM Pepstatin A. The suspension is sonified and thereafter centrifuged for 15 min at 10,000 g. The resulting supernatant (platelet lysate) is used for enzymatic testings.
PDE5A1 activity is inhibited by the compounds of the present subject matter in a modified SPA (scintillation proximity assay) test, supplied by Amersham Biosciences (see procedural instructions “phosphodiesterase [3H]cAMP SPA enzyme assay, code TRKQ 7090”), carried out in 96-well microtitre plates (MTP's). The test volume is 100 μl and contains 20 mM Tris buffer (pH 7.4), 0.1 mg of BSA (bovine serum albumin)/ml, 5 mM Mg^2+, 1 μM motapizone, 10 nM PDE2 inhibitor 2-(3,4-dimethoxybenzyl)-7-[(1R,2R)-2-hydroxy-1-(2-phenylethyl)propyl]-5-methylimidazo[5,1-t][1,2,4]triazin-4(3H)-one, 0.5 μM cGMP (cyclic guanosine monophosphate) (including about 50,000 cpm of [3H]cGMP as a tracer), 1 μl of the respective compound dilution in dimethylsulfoxide (DMSO) and sufficient PDE5-containing platelet lysat (10,000×g supernatant, see above) to ensure that 10-20 wt % of the cGMP is converted under the said experimental conditions. […] After a preincubation of 5 min at 37° C., the reaction is started by adding the substrate (cGMP) and the assay is incubated for a further 15 min; after that, it is stopped by adding SPA beads (50 μl). In accordance with the manufacturer's instructions, the SPA beads had previously been resuspended in water, but are then diluted 1:3 (v/v) in water; the diluted solution also contains 3 mM 8-methoxymethyl-3-isobutyl-1-methylxanthine (IBMX) to ensure a complete PDE activity stop. After the beads have been sedimented (>30 min), the MTP's are analyzed in commercially available luminescence detection devices. The corresponding IC50 values of the compounds for the inhibition of PDE activity are determined from the concentration-effect curves by means of non-linear regression.

Row | Compound | IC50 [nM]
1 | COCC(=O)N1CCC(NC(=O)c2c(C)[nH]c3c(-c4cc(F)ccc4OCC4CC4)ccnc23)CC1 [Example E21, 7-[2-(Cyclopropylmethoxy)-5-fluorophenyl]-N-[1-(methoxyacetyl)piperidin-4-yl]-2-methyl-1H-pyrrolo[3,2-b]pyridine-3-carboxamide] | 1 to 10
2 | Cc1ccc(OCC2CC2)c(-c2ccnc3c(C(=O)N[C@H]4CC[C@@H](NC(=O)[C@H](C)O)CC4)c(C)[nH]c23)c1 [Example F39, 7-[2-(Cyclopropylmethoxy)-5-methylphenyl]-N-(cis-4-{[(2S)-2-hydroxypropanoyl]amino}cyclohexyl)-2-methyl-1H-pyrrolo[3,2-b]pyridine-3-carboxamide] | 1 to 10
3 | COc1ccc(-c2ccnc3c(C(=O)NC4CCN(C(C)=O)CC4)c(C)[nH]c23)c(OCC2CC2)c1 [Example E31, N-(1-Acetylpiperidin-4-yl)-7-[2-(cyclopropylmethoxy)-4-methoxyphenyl]-2-methyl-1H-pyrrolo[3,2-b]pyridine-3-carboxamide] | < 1
4 | COCC(=O)N1CC[C@@H](NC(=O)c2c(C)[nH]c3c(-c4cc(OC)c(F)cc4OCC4CC4)ccnc23)[C@H](O)C1 (relative stereo) [Example E75, 7-[2-(Cyclopropylmethoxy)-4-fluoro-5-methoxyphenyl]-N-[(3R*,4R*)-3-hydroxy-1-(methoxyacetyl)piperidin-4-yl]-2-methyl-1H-pyrrolo[3,2-b]pyridine-3-carboxamide] | < 1
5 | CCC(=O)N[C@H]1CC[C@@H](NC(=O)c2c(C)[nH]c3c(-c4c(OCC5CC5)ccc5c4OCO5)ccnc23)CC1 [Example E07, 7-[5-(Cyclopropylmethoxy)-1,3-benzodioxol-4-yl]-2-methyl-N-[cis-4-(propionylamino)cyclohexyl]-1H-pyrrolo[3,2-b]pyridine-3-carboxamide] | < 1
6 | COc1cc(OCC2CC2)c(-c2ccnc3c(C(=O)NC4CCN(C(=O)CO)CC4)c(C)[nH]c23)cc1F [Example F50, 7-[2-(Cyclopropylmethoxy)-5-fluoro-4-methoxyphenyl]-N-(1-glycoloylpiperidin-4-yl)-2-methyl-1H-pyrrolo[3,2-b]pyridine-3-carboxamide] | < 1
7 | CCC(=O)N[C@H]1CC[C@H](NC(=O)c2c(C)[nH]c3c(-c4ccc(OC)cc4OCC4CC4)ccnc23)CC1 [Example E35, 7-[2-(Cyclopropylmethoxy)-4-methoxyphenyl]-2-methyl-N-[trans-4-(propanoylamino)cyclohexyl]-1H-pyrrolo[3,2-b]pyridine-3-carboxamide] | < 1
8 | COc1ccc(OCC2CC2)c(-c2ccnc3c(C(=O)N[C@H]4CC[C@@H](NC(=O)CO)CC4)c(C)[nH]c23)c1 [Example F30, 7-[2-(Cyclopropylmethoxy)-5-methoxyphenyl]-N-{cis-4-[(hydroxyacetyl)amino]cyclohexyl}-2-methyl-1H-pyrrolo[3,2-b]pyridine-3-carboxamide] | < 1
9 | CC(=O)N1CCC(NC(=O)c2c(C)[nH]c3c(-c4cc(F)ccc4OCC4CC4)ccnc23)CC1 [Example E19, N-(1-Acetylpiperidin-4-yl)-7-[2-(cyclopropylmethoxy)-5-fluorophenyl]-2-methyl-1H-pyrrolo[3,2-b]pyridine-3-carboxamide] | 1 to 10
10 | CC(=O)N[C@H]1CC[C@@H](NC(=O)c2c(C)[nH]c3c(-c4cc(C)ccc4OCC4CC4)ccnc23)CC1 [Example E58, N-[cis-4-(Acetylamino)cyclohexyl]-7-[2-(cyclopropylmethoxy)-5-methylphenyl]-2-methyl-1H-pyrrolo[3,2-b]pyridine-3-carboxamide] | 1 to 10
11 | COc1cc(-c2ccnc3c(C(=O)N[C@H]4CC[C@@H](NC(=O)[C@H](C)O)CC4)c(C)[nH]c23)c(OCC2CC2)cc1F [Example F45, 7-[2-(Cyclopropylmethoxy)-4-fluoro-5-methoxyphenyl]-N-(cis-4-{[abs.(2S)-2-hydroxypropanoyl]amino}cyclohexyl)-2-methyl-1H-pyrrolo[3,2-b]pyridine-3-carboxamide] | < 1
12 | COCC(=O)N1CCC(NC(=O)c2c(C)[nH]c3c(-c4cc(C)ccc4OCC4CC4)ccnc23)CC1 [Example E54, 7-[2-(Cyclopropylmethoxy)-5-methylphenyl]-N-[1-(methoxyacetyl)piperidin-4-yl]-2-methyl-1H-pyrrolo[3,2-b]pyridine-3-carboxamide] | 1 to 10
13 | CCC(=O)N1CCC(NC(=O)c2c(C)[nH]c3c(-c4cc(OC)c(F)cc4OCC4CC4)ccnc23)CC1 [Example E62, 7-[2-(Cyclopropylmethoxy)-4-fluoro-5-methoxyphenyl]-2-methyl-N-(1-propanoylpiperidin-4-yl)-1H-pyrrolo[3,2-b]pyridine-3-carboxamide] | < 1
14 | COc1ccc(-c2ccnc3c(C(=O)N[C@H]4CC[C@@H](NC(=O)[C@H](C)O)CC4)c(C)[nH]c23)c(OCC2CC2)c1 [Example F25, 7-[2-(Cyclopropylmethoxy)-4-methoxyphenyl]-N-(cis-4-{[(2S)-2-hydroxypropanoyl]amino}cyclohexyl)-2-methyl-1H-pyrrolo[3,2-b]pyridine-3-carboxamide] | < 1
15 | CCC(=O)N[C@H]1CC[C@@H](NC(=O)c2c(C)[nH]c3c(-c4cc(F)ccc4OCC4CC4)ccnc23)CC1 [Example E26, 7-[2-(Cyclopropylmethoxy)-5-fluorophenyl]-2-methyl-N-[cis-4-(propanoylamino)cyclohexyl]-1H-pyrrolo[3,2-b]pyridine-3-carboxamide] | 1 to 10
16 | CCC(=O)N1CCC(NC(=O)c2c(C)[nH]c3c(-c4cc(OC)ccc4OCC4CC4)ccnc23)CC1 [Example E41, 7-[2-(cyclopropylmethoxy)-5-methoxyphenyl]-2-methyl-N-(1-propanoylpiperidin-4-yl)-1H-pyrrolo[3,2-b]pyridine-3-carboxamide] | < 1
17 | COCC(=O)N[C@H]1CC[C@H](NC(=O)c2c(C)[nH]c3c(-c4ccc(OC)cc4OCC4CC4)ccnc23)CC1 [Example E36, 7-[2-(Cyclopropylmethoxy)-4-methoxyphenyl]-N-{trans-4-[(methoxyacetyl)amino]cyclohexyl}-2-methyl-1H-pyrrolo[3,2-b]pyridine-3-carboxamide] | < 1
18 | Cc1[nH]c2c(-c3cc(F)ccc3OCC3CC3)ccnc2c1C(=O)N[C@H]1CC[C@@H](NC(=O)CO)CC1 [Example F16, 7-[2-(Cyclopropylmethoxy)-5-fluorophenyl]-N-{cis-4-[(hydroxyacetyl)amino]cyclohexyl}-2-methyl-1H-pyrrolo[3,2-b]pyridine-3-carboxamide] | 1 to 10
19 | Cc1[nH]c2c(-c3cc(F)ccc3OCC3CC3)ccnc2c1C(=O)N[C@H]1CC[C@H](NC(=O)CO)CC1 [Example F14, 7-[2-(Cyclopropylmethoxy)-5-fluorophenyl]-N-{trans-4-[(hydroxyacetyl)amino]cyclohexyl}-2-methyl-1H-pyrrolo[3,2-b]pyridine-3-carboxamide] | < 1
20 | COc1cc(OCC2CC2)c(-c2ccnc3c(C(=O)NC4CCN(C(C)=O)CC4)c(C)[nH]c23)cc1F [Example E76, N-(1-Acetylpiperidin-4-yl)-7-[2-(cyclopropylmethoxy)-5-fluoro-4-methoxyphenyl]-2-methyl-1H-pyrrolo[3,2-b]pyridine-3-carboxamide] | < 1
21 | COCC(=O)N1C[C@@H](O)[C@H](NC(=O)c2c(C)[nH]c3c(-c4cc(OC)c(F)cc4OCC4CC4)ccnc23)C1 (relative stereo) [Example E72, 7-[2-(Cyclopropylmethoxy)-4-fluoro-5-methoxyphenyl]-N-[(3R*,4R*)-4-hydroxy-1-(methoxyacetyl)pyrrolidin-3-yl]-2-methyl-1H-pyrrolo[3,2-b]pyridine-3-carboxamide] | < 1
22 | Cc1[nH]c2c(-c3ccc(F)cc3OCC3CC3)ccnc2c1C(=O)N[C@H]1CC[C@H](NC(=O)[C@H](C)O)CC1 [Example F09, 7-[2-(Cyclopropylmethoxy)-4-fluorophenyl]-N-(trans-4-{[(2S)-2-hydroxypropanoyl]amino}cyclohexyl)-2-methyl-1H-pyrrolo[3,2-b]pyridine-3-carboxamide] | < 1
